This is an account of results in paper PMC10895676, “Antiviral Activity of Lipophilic Nucleoside Tetraphosphate Compounds” (Journal of Medicinal Chemistry, 2024).

One may read the CC50 as the concentration at which the toxic effect on the cells reaches its halfway point.

In series [1] the test system is HIV-2 (ROD). The series can be described thus: Anti-HIV replication assay, HIV-2 (ROD) in wild-type CEM/0 cells. The class given is cell-based. The settings on record: for selectivity index (SI): CC50/EC50, HIV-2 (ROD) in CEM cells; for EC50: Human immunodeficiency virus 2, CCRF-CEM, read-out: HIV-2 (ROD) EC50. The method, then:
(§1) Inhibition of HIV-1(HE)- and HIV-2(ROD)-induced cytopathogenicity in wild-type CEM/0 CEM CD4^+ T-cells and thymidine kinase-deficient CEM/TK^– cell cultures was measured in microtiter 96-well plates containing ∼3 × 10^5 CEM cells/mL infected with 100 CCID50 of HIV per milliliter and containing appropriate dilutions of the test compounds. After 4–5 days of incubation at 37 °C in a CO2-controlled humidified atmosphere, virus-induced cellular effects and syncytia cell formation were examined microscopically.

Series [2] deals with HIV-2 (ROD). Kind of series: Anti-HIV replication assay, HIV-2 (ROD) in thymidine kinase-deficient CEM/TK– cells. In kind it is cell-based. The settings on record: for selectivity index (SI): CC50/EC50, HIV-2 (ROD) in CEM/TK– cells; for EC50: Human immunodeficiency virus 2, CEM/TK– cells, mean ± SD, n = 2–3, read-out: CEM/TK– HIV-2 (ROD) EC50. The method, then:
as §1

Series [3] can be described thus: Chemical hydrolysis in aqueous buffers (PBS pH 7.3 / 8.0, citrate buffer pH 2.0), RP18-HPLC. In kind it is physicochemical. The settings on record: phosphate buffered saline; 25 mM PBS, pH 7.3, 37 °C; read-out: PBS pH 7.3 t1/2 (converted). The method, then:
All metabolite mixtures were analyzed and quantified by means of analytical RP18-HPLC (UV detection).
The solution was incubated at 37 °C in a thermomixer. […] for each extraction and stored at −30 °C. When testing, samples were warmed up to room temperature, and 25 or 20 μL of the liquid was taken and injected into the analytical RP-18-HPLC instrument. Further aliquots were taken for monitoring the kinetic hydrolysis.
5.88 g of citric acid and 3.58 g of NaCl were dissolved in 82 mL of hydrochloric acid (0.1 mol/L). Then, sodium hydroxide was added to adjust the pH to 2.0.

Series [4] can be described thus: Cytotoxicity, inhibition of CEM/TK– cell proliferation. The class given is cell-based. The settings on record: human, CEM/TK– cells (CD4+ T-cells), read-out: toxicity CC50.
A further series concerns pig liver esterase (PLE). Kind of series: Enzymatic hydrolysis with pig liver esterase (PLE). The settings on record: pig liver esterase in phosphate buffer, PLE in phosphate buffer pH 7.3, 37 °C, read-out: PLE t1/2 (converted). In kind it is in vitro ADME. The method, then: To confirm the enzymatic hydrolysis process, TetraPPPPro-nucleotides 4–9 bearing different kinds of lipophilic groups attached to the δ-phosph(on)ate group were incubated with PLE in phosphate buffer.
Then, 833 μL of 50 mM phosphate buffer (pH 7.3) and 125 μL of DMSO were added to the 6.0 mM hydrolysis solutions. The reaction was started by addition of 62.5 μL of PLE in phosphate buffer (100 units/mL), and the mixture was incubated at 800 rpm at 37 °C in a thermomixer. (1). At different times, aliquots (75 μL) were taken and stopped by the addition of […] of MeOH. The mixture was stored in liquid nitrogen. When testing, samples were warmed up to room temperature, and 60 μL of the liquid was directly injected into HPLC analysis. (2). 40 μL for each extraction was stored in liquid nitrogen. When testing, samples were warmed up to room temperature, and 30 μL of the liquid was taken and injected into the analytical RP-18-HPLC instrument. The calculation of t1/2 was performed analogously to that for the chemical hydrolysis studies.

Series [5] is described as follows: Hydrolysis in CEM/0 cell extracts. In kind it is in vitro ADME. The settings on record: human, 37 °C, read-out: CEM/0 cell extracts t1/2 (converted). The method, then: Next, TetraPPPPro-nucleotides 4–9 were incubated in human CD4^+ T-lymphocyte CEM/0 cell extracts to study their stability and identify the hydrolysis products.
CEM cells were grown in RPMI-1640-based cell culture medium to a final density of ∼3 × 10^6 cells/mL. Cells were centrifuged for 10 min at 1250 rpm at 4 °C and washed twice with cold PBS, and the pellet was resuspended at 10^8 cells/mL and sonicated (Hielscher Ultrasound Techn., 100% amplitude, 3·times for 10 s) to destroy cell integrity. Next, the resulting cell suspension was centrifuged at 10,000 rpm to remove cell debris. Finally, the supernatant was divided into aliquots and frozen at −80 °C.
6.0 mM hydrolysis solutions of compounds 4–9 were prepared from 21 μL of 50 mM DMSO stock solutions and 154 μL of DMSO. Two different samples, including 10 μL of water and 10 μL of 6.0 mM hydrolysis solution, were prepared in 2 mL Eppendorf vials. Next, 50 μL of human CEM cell extracts or 50 μL of human citrate plasma were added to the mixture, the reaction was started, and the mixture was incubated at 37 °C for different time periods. The reactions were stopped by the addition of 150 μL of MeOH. The resulting suspension was kept on ice for 5 min, followed by defrosting and centrifugation at 14,000 rpm (Heraeus, Biofuge Pico) for 22 min. The supernatants (80 or 60 μL) were directly injected into HPLC. The calculation of t1/2 was performed analogously to that for the chemical hydrolysis studies.

Series [6] can be described thus: Cytotoxicity, inhibition of CEM cell proliferation. The class given is cell-based. The settings on record: human, CEM cells (CD4+ T-cells), read-out: toxicity CC50.
Another series concerns HIV-1 (HE). Kind of series: Anti-HIV replication assay, HIV-1 (HE) in wild-type CEM/0 cells. In kind it is cell-based. The settings on record: for EC50: Human immunodeficiency virus 1, CCRF-CEM, wild-type CEM/0 cells, mean ± SD, n = 2–3, read-out: HIV-1 (HE) EC50. The method, then: as §1, with “microscopically. The EC50 (50% effective concentration) was defined as the compound concentration required to inhibit HIV-induced giant cell formation by 50%.” for “microscopically.”

The conditions of series [7]: cited from earlier work.
Setting [8] is: wild-type CEM/0 cells, mean ± SD, n = 2–3.

Several values for one entry are separate records, joined by “and”; a condition that tells them apart may be missing. Equal entries are not always repeated. Where two headings read alike, the source gives them in different places.

As for `CCCCCCCCCCCCCCCCOC(=O)Oc1ccc(COP(=O)(OCc2ccc(OC(=O)CCCC)cc2)OP(=O)(O)OP(=O)(O)OP(=O)(O)OC[C@@H]2C=C[C@H](n3cc(C)c(=O)[nH]c3=O)O2)cc1` (stereo partly drawn) [compound 9, δ-(AB-C4; ACB-C16)-d4T4P], the “selectivity index (SI)” value in the series on HIV-2 (ROD) [1] was 365; with HIV-2 (ROD) [2], 5. For the same compound, the EC50 in the series with HIV-2 (ROD) [1] (setting [8]) amounted to 210 ± 110 nM; in the series on HIV-2 (ROD) [2] it was 9710 ± 4780 nM; in the series on HIV-1 (HE), 170 ± 50 nM. Also, the half-life at 1.9 mM in series [3] is 25 h. In addition, the CC50 amounted to 50000 nM in series [4] and 76800 nM in [6]. In the series on pig liver esterase (PLE), the half-life at 0.45 mM is 1.03 h. For the same compound, in series [5], the half-life at 0.86 mM was 2.58 h.
As to `CCCCCCCCCCCCCCCCCCOP(=O)(OCc1ccc(OC(=O)CCCC)cc1)OP(=O)(O)OP(=O)(O)OC[C@@H]1C=C[C@H](n2cc(C)c(=O)[nH]c2=O)O1` (stereo partly drawn) [2a, γ-(AB-C4; C18)-d4TTP], in series [7] (PBS), the “PBS pH 7.3 t1/2” value is 237 h.
As to `CCCCCCCCCCCCCCCCCCP(=O)(OCc1ccc(OC(=O)CCCC)cc1)OP(=O)(O)OP(=O)(O)OP(=O)(O)OC[C@@H]1C=C[C@H](n2cc(C)c(=O)[nH]c2=O)O1` (stereo partly drawn) [compound 7, δ-(AB-C4)-δ-C-(alkyl-C18)-d4T4P], the “selectivity index (SI)” value with HIV-2 (ROD) [1] was 4330; in the series on HIV-2 (ROD) [2], 5700 and 5677. Besides, the “increase in antiviral potency as compared to d4T” value with HIV-2 (ROD) [1] (HIV-2, CEM/0 cells) is 107 fold; in the series on HIV-1 (HE) (HIV-1, CEM/0 cells) it was 36 fold. Further, the EC50 in the series on HIV-2 (ROD) [1] (setting [8]) was found to be 9.1 ± 7.7 nM; in the series on HIV-2 (ROD) [2] it was 6.5 ± 5.7 nM; with HIV-1 (HE), 9.2 ± 8.2 nM. Also, the half-life at 1.9 mM in series [3] is over 600 h. In addition, the CC50 came to 36900 nM in series [4] and 39400 nM in series [6]. Further, the half-life at 0.45 mM in the series on pig liver esterase (PLE) was 0.5 h. In addition, the half-life at 0.86 mM in series [5] was over 8 h.
On to β-(AB-C4)-β-C-(C18)-d4TDP [33b], for which the “PBS pH 7.3 t1/2” value in series [7] (buffer) is over 1000 h.
`CCCCCCCCCCCCCCCCCCOP(=O)(OCCCCCCCCCCCCCCCCCC)OP(=O)(O)OP(=O)(O)OP(=O)(O)OC[C@@H]1C=C[C@H](n2cc(C)c(=O)[nH]c2=O)O1` [4c, δ-(Alkyl-C18; alkyl-C18)-d4T4P]: the “selectivity index (SI)” value with HIV-2 (ROD) [1] amounted to 24; with HIV-2 (ROD) [2], 13. For the same compound, the results for the EC50 with HIV-2 (ROD) [1] (setting [8]), in the series with HIV-2 (ROD) [2] and in the series on HIV-1 (HE) were 2090 ± 580 nM, 6180 ± 1000 nM and 1990 ± 900 nM, respectively. Also, the figures for the CC50 in [4] and in [6] were 84100 nM and 50000 nM, respectively.
For β-(AB-C4; C18)-d4TDP [33a], the “PBS pH 7.3 t1/2” value in series [7] (buffer) is recorded as 406 h.
Take `Cc1cn([C@H]2C=C[C@@H](CO)O2)c(=O)[nH]c1=O` [d4T, 3′-deoxy-2′,3′-didehydrothymidine, reference compound]: the results for the EC50 with HIV-2 (ROD) [1], in the series with HIV-2 (ROD) [2] and with HIV-1 (HE) were 970 ± 500 nM, over 50000 nM and 330 ± 130 nM, respectively. Further, the CC50 in [4] and in [6] was over 50000 nM in each case.
As to `CCCCCCCCCCCCCCCCCCOP(=O)(OCC(CC)CCCC)OP(=O)(O)OP(=O)(O)OP(=O)(O)OC[C@@H]1C=C[C@H](n2cc(C)c(=O)[nH]c2=O)O1` (stereo partly drawn) [4e, δ-(Alkyl-C8; alkyl-C18)-d4T4P], the entries for the “selectivity index (SI)” value in the series on HIV-2 (ROD) [1] and in the series with HIV-2 (ROD) [2] were 139 and 114, respectively. Besides, the values for the EC50 in the series with HIV-2 (ROD) [1] (setting [8]), in the series with HIV-2 (ROD) [2] and in the series with HIV-1 (HE) were 320 ± 90 nM, 430 ± 210 nM and 440 ± 170 nM, respectively. In addition, in series [3], the half-life at 1.9 mM is 325 h. The CC50 in [4] amounted to 48900 nM; in series [6] it was 44700 nM.
Regarding β-(alkyl-C4)-β-C-(alkyl-C18)-d4TDP, the “PBS pH 7.3 t1/2” value in [7] (buffer) is recorded as over 3000 h.
As for `CCCCCCCCCCCCOP(=O)(OCCCCCCCCCCCC)OP(=O)(O)OP(=O)(O)OP(=O)(O)OC[C@@H]1C=C[C@H](n2cc(C)c(=O)[nH]c2=O)O1` [4b, δ-(Alkyl-C12; alkyl-C12)-d4T4P], the results for the “selectivity index (SI)” value in the series with HIV-2 (ROD) [1] and with HIV-2 (ROD) [2] were 405 and 2927, respectively. Besides, the EC50 with HIV-2 (ROD) [1] (setting [8]) is 110 ± 50 nM; with HIV-2 (ROD) [2], 29 ± 37 nM; in the series on HIV-1 (HE), 170 ± 100 nM. The “improvement of antiviral activity as compared to the parent d4T” value in the series with HIV-2 (ROD) [2] (HIV-2, CEM/TK– cells) is over 1700 fold. Besides, the half-life at 1.9 mM in series [3] was 215 h. The CC50 in series [4] is 84900 nM; in series [6] it was 44600 nM.
As to `CCCCCCCCCCCCCCCCCCP(=O)(OCC(CC)CCCC)OP(=O)(O)OP(=O)(O)OP(=O)(O)OC[C@@H]1C=C[C@H](n2cc(C)c(=O)[nH]c2=O)O1` (stereo partly drawn) [5b, δ-(Alkyl-C8)-δ-C-(alkyl-C18)-d4T4P], the “selectivity index (SI)” value is recorded as over 77 with HIV-2 (ROD) [1] and 312 in the series with HIV-2 (ROD) [2]. Moreover, the EC50 with HIV-2 (ROD) [1] (setting [8]) stood at 1300 ± 640 nM; with HIV-2 (ROD) [2] it was 160 ± 130 nM; with HIV-1 (HE), 1440 ± 700 nM. In addition, in series [3], the half-life at 1.9 mM was over 1000 h. Further, the values for the CC50 in [4] and in series [6] were 50000 nM and over 100000 nM, respectively.
